# Laboratory results from patent US11414416B1, “Compounds and uses thereof” (Foghorn Therapeutics Inc., priority 2019, dated 2022).
# Experiments:
# BRD9 bromodomain = BRD9 bromodomain (Homo sapiens (Human), UniProt Q9H8M2); test: BRD9 bromodomain TR-FRET competition binding assay; details: Table 4; competition with biotinylated ligand, 3 nM Flag-BRD9, 90 minutes
# Procedure: Procedure: His-Flag-BRD9 (P133-K239; Swiss Prot Q9H8M2; SEQ ID NO:1 mgsshhhhhhenlyfq/gdykddddkgslevlfqg/[…] […]) was cloned, expressed, purified, and then treated with TEV protease. Cleaved His tag was removed by purification. The binding of a biotinylated small molecule ligand of BRD9 was assessed via the LANCE® TR-FRET platform (PerkinElmer), and the compounds were assayed for inhibitory activity against this interaction.
# A mixture of biotinylated-ligand and SureLight™ Allophycocyanin-Streptavidin (APC-SA, PerkinElmer AD0201) in 50 mM HEPES (pH 7.4), 50 mM NaCl, 1 mM TCEP (pH 7), 0.01% (v/v) Tween-20, 0.01% (w/v) bovine serum albumin was added to a white 384-well PerkinElmer Proxiplate Plus plate. DMSO or 3-fold serially diluted compounds were then added to the Proxiplate followed by addition of Flag-BRD9. After a 10-minute incubation at room temperature, Eu-W1024 anti-FLAG (PerkinElmer, AD0273) was added. The final reaction mixture that contained 3.75 nM biotinylated ligand, 3 nM Flag-BRD9, 7.5 nM SureLight™ Allophycocyanin-Streptavidin, and 0.2 nM Eu-W1024 anti-FLAG was incubated at room temperature for 90 minutes.
# Results: The plates were then read on a PerkinElmer Envision plate reader to determine the ratio of emission at 665 nm over 615 nm. […]
# [1] = molecular target: Nanoluciferase-BRD9 fusion protein (Homo sapiens (Human), UniProt Q9H8M2); test: SYO1 BRD9 NanoLuc degradation assay; assay type: cell-based; details: Table 5A, SYO-1 cells expressing 3×FLAG-NLuc-BRD9, 6 hours; for DC50: read-out: SYO1 BRD9-NanoLuc degradation IC50
# Summary of the method: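 Degradation was read as loss of nanoluciferase signal (Nano-Glo) after 6 h compound exposure in a stable SYO-1 line carrying 3×FLAG-NLuc-BRD9 (8000 cells/well). Normalised between DMSO (high) and a 1 μM known BRD9 degrader (low).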
# Nanoluciferase-BRD9 fusion protein, sequence (Q9H8M2 whole entry, the tested form may be a part): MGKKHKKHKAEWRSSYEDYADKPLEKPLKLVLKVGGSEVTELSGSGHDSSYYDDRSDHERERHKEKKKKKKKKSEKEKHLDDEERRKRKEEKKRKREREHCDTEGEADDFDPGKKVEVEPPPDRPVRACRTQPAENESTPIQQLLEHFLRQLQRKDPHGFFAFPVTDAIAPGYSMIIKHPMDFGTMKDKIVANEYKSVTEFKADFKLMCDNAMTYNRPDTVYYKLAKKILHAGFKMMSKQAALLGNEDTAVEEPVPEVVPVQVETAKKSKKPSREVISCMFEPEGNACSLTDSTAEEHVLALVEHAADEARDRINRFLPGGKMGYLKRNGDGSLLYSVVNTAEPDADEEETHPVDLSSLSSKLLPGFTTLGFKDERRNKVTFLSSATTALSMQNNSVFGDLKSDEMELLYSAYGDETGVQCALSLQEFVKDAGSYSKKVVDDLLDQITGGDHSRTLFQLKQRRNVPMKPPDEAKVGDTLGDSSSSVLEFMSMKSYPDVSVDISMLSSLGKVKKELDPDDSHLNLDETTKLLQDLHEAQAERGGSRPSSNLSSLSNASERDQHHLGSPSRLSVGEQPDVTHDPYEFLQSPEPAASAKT
# BRD9 bromodomain, sequence (Q9H8M2 133-239): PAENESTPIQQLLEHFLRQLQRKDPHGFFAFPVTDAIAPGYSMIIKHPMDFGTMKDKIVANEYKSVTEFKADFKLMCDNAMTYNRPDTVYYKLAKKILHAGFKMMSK
IC50 (BRD9 bromodomain),IC50 [1],DC50 [1],Compound
< 10 nM,< 10 nM,,"COc1cc(-c2cn(C)c(=O)c3cnccc23)cc(OC)c1CN1CC(S(=O)(=O)NCCCCCCCCNc2cccc3c2C(=O)N(C2CCC(=O)NC2=O)C3=O)C1 (stereo not shown) [Compound D12, 1-[[2,6-dimethoxy-4-(2-methyl-1-oxo-1,2-dihydro-2,7-naphthyridin-4-yl)phenyl]methyl]-N-(8-[[2-(2,6-dioxopiperidin-3-yl)-1,3-dioxo-2,3-dihydro-1H-isoindol-4-yl]amino]octyl)azetidine-3-sulfonamide]"
< 10 nM,,< 10 nM,"COc1cc(-c2cn(C)c(=O)c3cnccc23)cc(OC)c1CN1CC(C)(C(=O)NCCCCCCCCNc2cccc3c2C(=O)N(C2CCC(=O)NC2=O)C3=O)C1 (stereo not shown) [Compound D13, 1-(2,6-dimethoxy-4-(2-methyl-1-oxo-1,2-dihydro-2,7-naphthyridin-4-yl)benzyl)-N-(8-((2-(2,6-dioxopiperidin-3-yl)-1,3-dioxoisoindolin-4-yl)amino)octyl)-3-methylazetidine-3-carboxamide]"
< 10 nM,< 10 nM,,"COc1cc(-c2cn(C)c(=O)c3cnccc23)cc(OC)c1CN1CC(C(=O)N(C)CCCCCCCCNc2cccc3c2C(=O)N(C2CCC(=O)NC2=O)C3=O)C1 (stereo not shown) [Compound D14, 1-[[2,6-dimethoxy-4-(2-methyl-1-oxo-1,2-dihydro-2,7-naphthyridin-4-yl)phenyl]methyl]-N-(8-[[2-(2,6-dioxopiperidin-3-yl)-1,3-dioxo-2,3-dihydro-1H-isoindol-4-yl]amino]octyl)-N-methylazetidine-3-carboxamide]"
< 10 nM,< 10 nM,,"COc1cc(-c2cn(C)c(=O)c3cnccc23)cc(OC)c1CN1CC(C(=O)N(C)CCCCCNc2cccc3c2C(=O)N(C2CCC(=O)NC2=O)C3=O)C1 (stereo not shown) [Compound D15, 1-[[2,6-dimethoxy-4-(2-methyl-1-oxo-1,2-dihydro-2,7-naphthyridin-4-yl)phenyl]methyl]-N-(5-[[2-(2,6-dioxopiperidin-3-yl)-1,3-dioxo-2,3-dihydro-1H-isoindol-4-yl]amino]pentyl)-N-methylazetidine-3-carboxamide formic acid]"
< 10 nM,< 10 nM,,"COc1cc(-c2cn(C)c(=O)c3cnccc23)cc(OC)c1CN1CC(S(=O)(=O)NCCCCCNc2ccc3c(c2)C(=O)N(C2CCC(=O)NC2=O)C3=O)C1 (stereo not shown) [Compound D23, 1-[[2,6-dimethoxy-4-(2-methyl-1-oxo-1,2-dihydro-2,7-naphthyridin-4-yl)phenyl]methyl]-N-(5-[[2-(2,6-dioxopiperidin-3-yl)-1,3-dioxo-2,3-dihydro-1H-isoindol-5-yl]amino]pentyl) azetidine-3-sulfonamide formic acid]"
< 10 nM,,100 to 1000 nM,"COc1cc(-c2cn(C)c(=O)c3cnccc23)cc(OC)c1CN1CC[C@H]1C(=O)NCCN(C)CCNc1cccc2c1C(=O)N(C1CCC(=O)NC1=O)C2=O (stereo partly drawn) [Compound D25, (2S)-1-[[2,6-dimethoxy-4-(2-methyl-1-oxo-1,2-dihydro-2,7-naphthyridin-4-yl)phenyl]methyl]-N-[2-[(2-[[2-(2,6-dioxopiperidin-3-yl)-1,3-dioxo-2,3-dihydro-1H-isoindol-4-yl]amino]ethyl)(methyl)amino]ethyl]azetidine-2-carboxamide]"
10 to 100 nM,> 1000 nM,,"COc1cc(-c2cn(C)c(=O)c3cnccc23)cc(OC)c1CN1CC[C@H]1C(=O)NCCN(C)CCNC(=O)COc1ccc2c(c1)C(=O)N(C1CCC(=O)NC1=O)C2=O (stereo partly drawn) [Compound D26, N-[2-[(2-[[(2S)-1-[[2,6-dimethoxy-4-(2-methyl-1-oxo-1,2-dihydro-2,7-naphthyridin-4-yl)phenyl]methyl]azetidin-2-yl]formamido]ethyl)(methyl)amino]ethyl]-2-[[2-(2,6-dioxopiperidin-3-yl)-1,3-dioxo-2,3-dihydro-1H-isoindol-5-yl]oxy]acetamide]"
< 10 nM,,10 to 100 nM,"COc1cc(-c2cn(C)c(=O)c3cnccc23)cc(OC)c1CN1CC[C@H]1CN(C)Cc1cccc2c1C(=O)N(C1CCC(=O)NC1=O)C2=O (stereo partly drawn) [Compound D27, 4-(((((S)-1-(2,6-dimethoxy-4-(2-methyl-1-oxo-1,2-dihydro-2,7-naphthyridin-4-yl)benzyl)azetidin-2-yl)methyl)(methyl)amino)methyl)-2-(2,6-dioxopiperidin-3-yl)isoindoline-1,3-dione]"
< 10 nM,,10 to 100 nM,"COc1cc(-c2cn(C)c(=O)c3cnccc23)cc(OC)c1CN1CC(C(=O)NCCS(=O)(=O)CCNc2cccc3c2C(=O)N(C2CCC(=O)NC2=O)C3=O)C1 (stereo not shown) [Compound D30, 1-(2,6-dimethoxy-4-(2-methyl-1-oxo-1,2-dihydro-2,7-naphthyridin-4-yl)benzyl)-N-(2-((2-((2-(2,6-dioxopiperidin-3-yl)-1,3-dioxoisoindolin-4-yl)amino)ethyl)sulfonyl)ethyl)azetidine-3-carboxamide]"
< 10 nM,< 10 nM,,"COc1cc(-c2cn(C)c(=O)c3cnccc23)cc(OC)c1CN1CC2(C1)CN(C(=O)CCCCOc1cccc3c1C(=O)N(C1CCC(=O)NC1=O)C3=O)C2 (stereo not shown) [Compound D34, 4-((5-(6-(2,6-dimethoxy-4-(2-methyl-1-oxo-1,2-dihydro-2,7-naphthyridin-4-yl)benzyl)-2,6-diazaspiro[3.3]heptan-2-yl)-5-oxopentyl)oxy)-2-(2,6-dioxopiperidin-3-yl)isoindoline-1,3-dione]"
< 10 nM,< 10 nM,,"COc1cc(-c2cn(C)c(=O)c3cnccc23)cc(OC)c1CN1CCN(C(=O)COc2cccc3c2C(=O)N(C2CCC(=O)NC2=O)C3=O)CC1 (stereo not shown) [Compound D37, 4-(2-(4-(2,6-dimethoxy-4-(2-methyl-1-oxo-1,2-dihydro-2,7-naphthyridin-4-yl)benzyl)piperazin-1-yl)-2-oxoethoxy)-2-(2,6-dioxopiperidin-3-yl)isoindoline-1,3-dione formic acid]"
< 10 nM,< 10 nM,,"COc1cc(-c2cn(C)c(=O)c3cnccc23)cc(OC)c1CN1CC(S(=O)(=O)NCCOCCOCCNc2cccc3c2C(=O)N(C2CCC(=O)NC2=O)C3=O)C1 (stereo not shown) [Compound D38, 1-[[2,6-dimethoxy-4-(2-methyl-1-oxo-2,7-naphthyridin-4-yl)phenyl]methyl]-N-[2-[2-(2-[[2-(2,6-dioxopiperidin-3-yl)-1,3-dioxoisoindol-4-yl]amino]ethoxy)ethoxy]ethyl]azetidine-3-sulfonamide formic acid]"

Compound,IC50 (BRD9 bromodomain),IC50 [1],DC50 [1]
"COc1cc(-c2cn(C)c(=O)c3cnccc23)cc(OC)c1CNCCCN1CC(Oc2ccc3c(c2)C(=O)N(C2CCC(=O)NC2=O)C3=O)C1 (stereo not shown) [Compound D31, 5-((1-(3-((2,6-dimethoxy-4-(2-methyl-1-oxo-1,2-dihydro-2,7-naphthyridin-4-yl)benzyl)amino)propyl)azetidin-3-yl)oxy)-2-(2,6-dioxopiperidin-3-yl)isoindoline-1,3-dione formic acid]",< 10 nM,,10 to 100 nM
"COc1cc(-c2cn(C)c(=O)c3cnccc23)cc(OC)c1CN1CC2(C1)CN(C(=O)CCCOc1cccc3c1C(=O)N(C1CCC(=O)NC1=O)C3=O)C2 (stereo not shown) [Compound D32, 4-(4-(6-(2,6-dimethoxy-4-(2-methyl-1-oxo-1,2-dihydro-2,7-naphthyridin-4-yl)benzyl)-2,6-diazaspiro[3.3]heptan-2-yl)-4-oxobutoxy)-2-(2,6-dioxopiperidin-3-yl)isoindoline-1,3-dione]",< 10 nM,,10 to 100 nM
"COc1cc(-c2cn(C)c(=O)c3cnccc23)cc(OC)c1CN1CCN(C(=O)CCCOc2cccc3c2C(=O)N(C2CCC(=O)NC2=O)C3=O)CC1 (stereo not shown) [Compound D33, 4-(4-(4-(2,6-dimethoxy-4-(2-methyl-1-oxo-1,2-dihydro-2,7-naphthyridin-4-yl)benzyl)piperazin-1-yl)-4-oxobutoxy)-2-(2,6-dioxopiperidin-3-yl)isoindoline-1,3-dione]",< 10 nM,< 10 nM,
"COc1cc(-c2cn(C)c(=O)c3cnccc23)cc(OC)c1CN1CC2(C1)CN(C(=O)COc1cccc3c1C(=O)N(C1CCC(=O)NC1=O)C3=O)C2 (stereo not shown) [Compound D36, 4-(2-(6-(2,6-dimethoxy-4-(2-methyl-1-oxo-1,2-dihydro-2,7-naphthyridin-4-yl)benzyl)-2,6-diazaspiro[3.3]heptan-2-yl)-2-oxoethoxy)-2-(2,6-dioxopiperidin-3-yl)isoindoline-1,3-dione]",< 10 nM,,100 to 1000 nM
"COc1cc(-c2cn(C)c(=O)c3cnccc23)cc(OC)c1CN1CCC2(CC1)CN(C(=O)CCCOc1cccc3c1C(=O)N(C1CCC(=O)NC1=O)C3=O)CCO2 (stereo not shown) [Compound D39, 4-[4-(9-[[2,6-dimethoxy-4-(2-methyl-1-oxo-2,7-naphthyridin-4-yl)phenyl]methyl]-1-oxa-4,9-diazaspiro[5.5]undecan-4-yl)-4-oxobutoxy]-2-(2,6-dioxopiperidin-3-yl)isoindole-1,3-dione]",< 10 nM,< 10 nM,
